Experimental data as given in publication PMC8844822, “SARM1 is a multi-functional NAD(P)ase with prominent base exchange activity, all regulated bymultiple physiologically relevant NAD metabolites” (iScience, 2022).

Legend:
hSARM1 full length = target: T1, hSARM1 full length (Homo sapiens, UniProt Q6SZW1); test: Base exchange reactions at neutral pH (HPLC); format: biochemical
T1 construct: Human recombinant SARM1 full length proteins (wild-type and E642A mutant); made in house
T1 sequence (Q6SZW1 28-724): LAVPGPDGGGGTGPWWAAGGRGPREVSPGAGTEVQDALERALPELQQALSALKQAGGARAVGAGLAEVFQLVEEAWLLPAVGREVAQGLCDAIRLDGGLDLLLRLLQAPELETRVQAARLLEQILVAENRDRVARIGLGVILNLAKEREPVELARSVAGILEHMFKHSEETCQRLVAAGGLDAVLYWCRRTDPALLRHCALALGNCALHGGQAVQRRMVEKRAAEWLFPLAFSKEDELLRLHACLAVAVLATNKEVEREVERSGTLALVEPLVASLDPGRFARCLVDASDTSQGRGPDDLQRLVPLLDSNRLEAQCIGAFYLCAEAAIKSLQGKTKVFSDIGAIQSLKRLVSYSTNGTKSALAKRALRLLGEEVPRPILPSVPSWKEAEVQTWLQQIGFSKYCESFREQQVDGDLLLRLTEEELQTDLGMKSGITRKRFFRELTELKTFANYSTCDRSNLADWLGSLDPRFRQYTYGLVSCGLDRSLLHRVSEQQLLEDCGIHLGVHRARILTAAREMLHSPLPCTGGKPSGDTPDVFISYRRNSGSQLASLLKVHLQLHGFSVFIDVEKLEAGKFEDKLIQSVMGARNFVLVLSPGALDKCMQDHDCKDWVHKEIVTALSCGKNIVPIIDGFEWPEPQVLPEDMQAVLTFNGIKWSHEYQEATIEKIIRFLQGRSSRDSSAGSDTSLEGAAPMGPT

DRG neurons = test: Base exchange products in DRG explant cultures (metabolite extraction, HPLC); format: cell-based, mouse; details: 4 h; for SARM1 dependence of base exchange product formation: wild-type vs Sarm1^−/− DRG cultures
Description: Dorsal Root Ganglia (DRG) were dissected from C57BL/6J (RRID IMSR_JAX:000664) or Sarm1^-/- (RRID MGI_3765957) E13.5-E14.5 mouse embryos. Explants were cultured in 35 mm tissue culture dishes pre-coated with poly-L-lysine (20 μg/ml for 1 h; Merck) and laminin (20 μg/ml for 1 h; Merck) in Dulbecco's Modified Eagle's Medium (DMEM, Gibco) with 1 % penicillin/streptomycin (Thermo Fisher Scientific), 33 ng/ml 2.5S NGF (Thermo Fisher Scientific) and 2% B27 (Gibco). 4 μM aphidicolin (Merck) was used to reduce proliferation and viability of small numbers of non-neuronal cells ([Loreto and Gilley, 2020]).
Wild-type and Sarm1^−/− DRG neurons were treated at DIV7 with 3-acetylpyridine (AcPyr) or vehicle (H2O), or with vacor or vehicle (H2O with 4% 1 N HCl). Proper drug concentrations and times of collection were determined first by dedicated experiments (see Figure 5A). At the indicated time-point, wild-type and Sarm1^−/− DRG whole explant cultures (typically 30-60 ganglia per condition) were collected, washed in ice-cold PBS and rapidly frozen in dry ice, and stored at −80°C until processed. Next extraction was carried out as reported by grinding in liquid N2, resuspending in HClO4 containing cAMP as internal standard for recovery calculations, sonicating, and neutralizing with K2CO3 ([Mori et al., 2014]). Next HPLC analyses to detect and measure the base exchange formed products, i.e. AcPyrAD or the vacorylated compound VAD, were carried out as described above in the paragraph “NADase assays”. In all samples, recovery yields from spiked cAMP were at least 96%. Furthermore, pellets after extraction of soluble nucleotides were treated as reported ([Mori et al., 2014]) to get reference protein contents to normalize the nucleotide levels. Protein concentrations were determined using the Bradford Reagent (Merck).

[1] = target: T2, Aplysia californica ADP ribosyl cyclase (Aplysia californica, UniProt P29241); test: Base exchange reactions at neutral pH (HPLC); format: biochemical; design: purchased Merck A8950
T2 sequence (P29241 25-282): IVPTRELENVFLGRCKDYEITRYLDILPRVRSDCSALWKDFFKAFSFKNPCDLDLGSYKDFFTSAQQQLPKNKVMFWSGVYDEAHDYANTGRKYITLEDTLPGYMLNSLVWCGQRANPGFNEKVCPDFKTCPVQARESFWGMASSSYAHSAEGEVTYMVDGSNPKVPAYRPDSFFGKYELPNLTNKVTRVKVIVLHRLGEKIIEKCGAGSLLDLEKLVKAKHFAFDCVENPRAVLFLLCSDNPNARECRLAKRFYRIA
Description: Multiple time stops from individual assays as above were analyzed for linearity, then extents of hydrolysis (white bars), cyclization (red bars), or base exchange (black bars) were calculated from each corresponding product as shown in Figure 1B and STAR methods. […] See also Figures S3–S5, and Table S1
Rates were calculated as follows.

[2] = hSARM1 full length +NMN 0.2 mM, NAD […]
[3] = hSARM1 full length +NMN 0.2 mM, NAD […] alone or + free base
[4] = hSARM1 full length +NMN 0.2 mM, NAD […], relative to NAD alone without trigger
[5] = hSARM1 full length +NMN 0.2 mM, NADP […]
[6] = hSARM1 full length +NMN 0.2 mM, NADP […] alone or + free base
[7] = hSARM1 full length +NMN 0.2 mM, NADP […], relative to NADP alone without trigger
[8] = hSARM1 full length +VMN 0.05 mM, NAD […]
[9] = hSARM1 full length +VMN 0.05 mM, NAD […] alone or + free base
[10] = hSARM1 full length +VMN 0.05 mM, NAD […], relative to NAD alone without trigger
[11] = hSARM1 full length +VMN 0.05 mM, NADP […]
[12] = hSARM1 full length +VMN 0.05 mM, NADP […] alone or + free base
[13] = hSARM1 full length +VMN 0.05 mM, NADP […], relative to NADP alone without trigger
[14] = hSARM1 full length, no trigger, NAD […] alone or + AcPyr 2 mM / Vacor 0.5 mM / Na 2 mM, pH 7.5
[15] = hSARM1 full length, no trigger, NADP […] alone or + AcPyr 2 mM / Vacor 0.5 mM / Na 2 mM, pH 7.5
[16] = NAD […] alone or + AcPyr 2 mM / Vacor 0.5 mM / Na 2 mM
[17] = NADP […] alone or + AcPyr 2 mM / Vacor 0.5 mM / Na 2 mM

SMILES | base exchange, share of products (hSARM1 full length; [2]) | cyclization, share of products (hSARM1 full length; [2]) | hydrolysis, share of products (hSARM1 full length; [2]) | rate (hSARM1 full length; [3]) | rate (relative fold) (hSARM1 full length; [4]) | base exchange, share of products (hSARM1 full length; [5]) | hydrolysis, share of products (hSARM1 full length; [5]) | rate (hSARM1 full length; [6]) | rate (relative fold) (hSARM1 full length; [7]) | base exchange, share of products (hSARM1 full length; [8]) | cyclization, share of products (hSARM1 full length; [8]) | hydrolysis, share of products (hSARM1 full length; [8]) | rate (hSARM1 full length; [9]) | rate (relative fold) (hSARM1 full length; [10]) | base exchange, share of products (hSARM1 full length; [11]) | hydrolysis, share of products (hSARM1 full length; [11]) | rate (hSARM1 full length; [12]) | rate (relative fold) (hSARM1 full length; [13]) | rate (hSARM1 full length; [14]) | rate (hSARM1 full length; [15]) | other results
CC(=O)c1cccnc1 [AcPyr, 3-acetylpyridine] | 92.73% | 0.80% | 6.47% | 218.5 ±37.4 mU/mg | 10.02 ±1.71 fold | 93.20% | 6.80% | 131.1 ±17.0 mU/mg | 8.92 ±1.16 fold | 93.61% | 0.68% | 5.72% | 228.9 ±18.9 mU/mg | 10.49 ±0.867 fold | 94.18% | 5.82% | 140.7 ±13.3 mU/mg | 9.57 ±0.907 fold | 42.6 ±3.34 mU/mg | 26.6 ±1.71 mU/mg | AcPyrAD formed (DRG neurons; wild-type DRGs, AcPyr 250 μM): 0.446 ± 0.021 nmol per mg of protein; SARM1 dependence of base exchange product formation (DRG neurons): not in treated Sarm1^−/− cultures; rate [1, 16]: 13996 ±624 mU/mg; rate [1, 17]: 15779 ±5215 mU/mg
O=C(NCc1cccnc1)Nc1ccc([N+](=O)[O-])cc1 [Vacor, 1-(4-nitrophenyl)-3-(pyridin-3-ylmethyl)urea] | 20.86% | 7.06% | 72.08% | 180.1 ±8.72 mU/mg | 8.26 ±0.400 fold | 23.61% | 76.34% | 134.7 ±5.67 mU/mg | 9.16 ±0.386 fold | 44.98% | 4.75% | 50.27% | 206.2 ±1.12 mU/mg | 9.45 ±0.051 fold | 35.56% | 63.94% | 148.5 ±4.61 mU/mg | 10.11 ±0.314 fold | 29.5 ±2.55 mU/mg | 22.9 ±1.68 mU/mg | cyclization, share of products (hSARM1 full length; [5]): ~ 0.05%; cyclization, share of products (hSARM1 full length; [11]): 0.50%; base exchange products VAD(P) or NaAD(P), share of total products (hSARM1 full length; hSARM1 full length, NAD or NADP 250 μM, vacor 0.5 mM, Na 2 mM): 20%–30%; VAD formed (DRG neurons; wild-type DRGs, vacor 50 μM): ~0.14 nmol/mg; SARM1 dependence of base exchange product formation (DRG neurons): found only in wild-type DRGs; rate [1, 16]: 12748 ±2593 mU/mg; rate [1, 17]: 8132 ±2201 mU/mg
